In patent publication US20090062253A1, “HETEROCYCLODIAZEPINE CANNABINOID RECEPTOR MODULATORS FOR TREATMENT OF DISEASE” (KALYPSYS, INC., priority 2007, published 2009):

Experiments:
Human CB2 = target: T1, Human CB2 (Homo sapiens, UniProt P34972); assay: Human CB2 Radioligand Binding Assay; details: membranes from stably transfected CHO CB2 cells; competition with [3H] CP-55,940; read-out: CB2 Ligand Binding Asssay
T1 construct: expressed in transfected cells; membrane preparation
Method: (§1) This receptor binding filtration assay measures the receptor-ligand interactions of compounds by measuring ability to compete with a radiolabeled control ligand. Reactions were performed in 96 deep-well plate (Costar 3961) with a final volume of 600 ul. Compounds were added to each well either in single point (10 uM final) or dose-response. Compounds were delivered in DMSO or further diluted in incubation buffer to a final assay DMSO concentration of 1%. Incubation buffer (50 mM Tris-HCl pH 7.4, 2.5 mM EGTA, 5 mM MgCl2, 5.0 mg/ml fatty acid free BSA) was added to each well. Following buffer addition, [^3H] CP-55,940 was added. Tritiated CP-55,940 (Perkin Elmer) was used at the Kd determined from prior saturation binding experiments conducted on each lot of membranes. Membrane preparations from stably transfected CHO CB2 cells were added and the reaction was incubated for 90 minutes at 30° C. Unifilter GF/C filtration plates (Perkin Elmer) were pre-wet with 0.05% polyethylenimine. Samples were transferred to Unifilter plates and separation of unbound radioligand was achieved using a vacuum manifold (Millipore). Following thorough washing with 5 ml/well ice-cold wash buffer (50 mM Tris-HCl pH 7.4, 2.5 mM EGTA, 5 mM MgCl2, 0.5 mg/ml fatty acid free BSA), filterplates were dried completely. Betaplate Scint Scintillation cocktail (25 ul, Perkin Elmer) was applied and plates were read using Microbeta Trilux (Wallac). Data analysis was performed in Spotfire. Activity of the positive control (100 nM CP-55,940) was set as 100% efficacy.
Stable recombinant Human CB2-CHO cell membranes were prepared as follows: Chinese Hamster Ovarian (CHO) cells stably expressing human cannabinoid receptor type 2 were grown to ˜90% confluence in 15×100 mm culture dishes under puromycin selection (5 ug/ml) Cells were harvested from culture flasks using a cell scraper, were washed once with cold phosphate-buffered saline (calcium and magnesium free) and pelleted by centrifugation at 400 g for 5 min at 4° C. Cell pellet was washed once with cold phosphate-buffered saline and centrifuged again at 400×g for 5 min at 4° C. The pellet was suspended in ice-cold lysis buffer (10 mM Tris-HCl, 0.1 mM EDTA, containing […], pH 7.5) and homogenized in a chilled 7 ml glass dounce homogenizer using 50 strokes. The homogenate was centrifuged at 400 g for 15 min at 4° C. The cloudy supernatant was collected and centrifuged at 41000 g for 30 min at 4° C. The resulting pellet was washed with ice-cold sucrose-free lysis buffer and centrifuged again at 41000 g for 30 min at 4° C. The membrane pellet was suspended in sucrose-free storage buffer (10 mm Tris-HCl, 0.1 mM EDTA, pH 7.5) to a concentration of 2-3 mg protein/ml. Aliquots were flash frozen in liquid nitrogen and stored at −80° C. Concentration was determined using Dc protein assay kit (Bio-Rad).

[1] = target: T2, human cannabinoid receptor type 1 (Homo sapiens, UniProt P21554); assay: Human CB1 Radioligand Binding Assay (basis of selectivity CB2 vs. CB1)
T2 construct: purchased Perkin Elmer RBHCB1M; host or cells: HEK 293 EBNA cells
Method: as §1
The CB1 binding assay was performed as described above except that HEK 293 EBNA cells expressing human cannabinoid receptor type 1 (Perkin Elmer cat #RBHCB1M) were used according the manufacturer's instructions. The incubation buffer was composed of 50 mM Tris-HCl pH 7.4, 2.5 mM EDTA, 5 mM MgCl2, 5.0 mg/ml fatty acid free BSA and the wash buffer was composed of 50 mM Tris-HCl pH 7.4, 2.5 mM EDTA, 5 mM MgCl2, 0.5 mg/ml fatty acid free BSA. Activity of the positive control (100 nM CP-55,940) was set as 100% efficacy.

T1 sequence (P34972 whole entry): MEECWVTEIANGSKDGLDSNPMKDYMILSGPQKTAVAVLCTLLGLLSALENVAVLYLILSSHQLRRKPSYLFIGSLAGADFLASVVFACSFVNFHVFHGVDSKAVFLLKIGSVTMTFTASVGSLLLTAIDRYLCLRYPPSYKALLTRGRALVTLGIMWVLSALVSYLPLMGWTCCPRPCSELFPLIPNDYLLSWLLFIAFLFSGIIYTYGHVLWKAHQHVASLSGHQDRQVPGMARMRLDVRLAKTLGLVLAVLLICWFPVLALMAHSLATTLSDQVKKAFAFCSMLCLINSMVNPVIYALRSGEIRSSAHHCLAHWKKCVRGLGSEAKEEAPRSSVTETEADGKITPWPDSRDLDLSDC
T2 sequence (P21554 whole entry): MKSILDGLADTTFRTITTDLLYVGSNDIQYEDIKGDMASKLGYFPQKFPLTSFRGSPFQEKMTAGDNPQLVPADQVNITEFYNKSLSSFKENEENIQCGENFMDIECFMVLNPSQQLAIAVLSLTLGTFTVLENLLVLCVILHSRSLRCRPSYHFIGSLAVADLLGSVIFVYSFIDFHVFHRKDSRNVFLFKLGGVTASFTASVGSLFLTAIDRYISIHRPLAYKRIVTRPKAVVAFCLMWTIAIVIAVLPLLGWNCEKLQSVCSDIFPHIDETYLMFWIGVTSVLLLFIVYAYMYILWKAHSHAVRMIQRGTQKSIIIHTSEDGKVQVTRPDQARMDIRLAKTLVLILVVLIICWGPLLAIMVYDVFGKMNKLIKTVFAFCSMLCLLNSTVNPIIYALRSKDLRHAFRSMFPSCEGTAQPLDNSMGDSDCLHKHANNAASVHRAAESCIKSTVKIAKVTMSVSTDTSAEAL

IC50 (radioligand displacement) (Human CB2) [nM] | Selectivity, CB2 vs. CB1 [1] | SMILES
< 1000 | + (+ indicates > 10-fold) | CC(C)(C)c1ccc(C2c3cccn3CCCC2NC(=O)Nc2ccc(C(F)(F)F)cc2)cc1 (mixture of isomers) [Example 122, 1-(9-(4-tert-Butylphenyl)-6,7,8,9-tetrahydro-5H-pyrrolo[1,2-a]azepin-8-yl)-3-(4-(trifluoromethyl)phenyl)urea]
< 1000 | + (+ indicates > 10-fold) | CC(C)(C)c1ccc(C2=C(NC(=O)Nc3ccc(C(F)(F)F)cc3)CCCn3cccc32)cc1 [Example 88, (E)-1-(9-(4-tert-Butylphenyl)-6,7-dihydro-5H-pyrrolo[1,2-a]azepin-8-yl)-3-(4-(trifluoromethyl)phenyl)urea]
> 1000 | − (− indicates < 10-fold) | CC(C)(C)c1ccc(C2c3cccn3CCCN2c2nc3ccccc3o2)cc1 (centres unmarked) [Example 53, 2-(1-(4-tert-Butylphenyl)-4,5-dihydro-1H-pyrrolo[1,2-a][1,4]diazepin-2(3H)-yl)benzo[d]oxazole]
> 1000 | + (+ indicates > 10-fold) | CC(C)(C)c1ccc(C2c3cccnc3CCCN2C(=O)Nc2ccc(Cl)cc2Cl)cc1 (centres unmarked) [Example 136, 5-(4-tert-Butylphenyl)-N-(2,4-dichlorophenyl)-8,9-dihydro-5H-pyrido[3,2-c]azepine-6(7H)-carboxamide]
> 1000 | − (− indicates < 10-fold) | O=C(Nc1ccc(F)cc1F)[C@H]1CCCn2cccc2[C@@H]1c1ccccc1 (relative stereo) [Example 105, (8,9-trans)-N-(2,4-Difluorophenyl)-9-phenyl-6,7,8,9-tetrahydro-5H-pyrrolo[1,2-a]azepine-8-carboxamide]
> 1000 | − (− indicates < 10-fold) | CC(C)(C)c1ccc(C2c3cccn3CCC2C(=O)Nc2ccc(C(F)(F)F)cc2)cc1 (centres unmarked) [Example 96, 8-(4-tert-Butylphenyl)-N-(4-(trifluoromethyl)phenyl)-5,6,7,8-tetrahydroindolizine-7-carboxamide]
> 1000 | − (− indicates < 10-fold) | COc1ccc(COC(=O)NC2=C(c3ccc(C(C)(C)C)cc3)c3cccn3CCC2)cc1 [Example 89, (E)-4-Methoxybenzyl 9-(4-tert-butylphenyl)-6,7-dihydro-5H-pyrrolo[1,2-a]azepin-8-ylcarbamate]
> 1000 | − (− indicates < 10-fold) | O=C(Nc1ccc(Cl)cc1)C1CCn2cccc2C1c1ccccc1 (mixture of isomers) [Example 102, N-(4-Chlorophenyl)-8-phenyl-5,6,7,8-tetrahydroindolizine-7-carboxamide]
< 1000 | + (+ indicates > 10-fold) | CC(C)(C)c1ccc(C2c3ccnn3CCCN2C(=O)Nc2ccc(F)cc2F)cc1 (centres unmarked) [Example 36, 4-(4-tert-Butylphenyl)-N-(2,4-difluorophenyl)-7,8-dihydro-4H-pyrazolo[1,5-a][1,4]diazepine-5(6H)-carboxamide]
> 1000 | − (− indicates < 10-fold) | CC(=O)N1CCCn2cccc2C1c1ccc(C(C)(C)C)cc1 (centres unmarked) [Example 46, 1-(1-(4-tert-Butylphenyl)-4,5-dihydro-1H-pyrrolo[1,2-a][1,4]diazepin-2(3H)-yl)ethanone]
< 1000 | − (− indicates < 10-fold) | CC(C)(C)c1ccc(C2c3cccn3CCCC2NC(=O)Nc2ccc(Cl)cc2Cl)cc1 (single isomer, unassigned) [Example 118, 1-(9-(4-tert-Butylphenyl)-6,7,8,9-tetrahydro-5H-pyrrolo[1,2-a]azepin-8-yl)-3-(2,4-dichlorophenyl)urea]
< 1000 | + (+ indicates > 10-fold) | CC(C)(C)c1ccc(C2[C@@H]3CCCN3CCCN2C(=O)Nc2ccc(F)cc2F)cc1 (stereo partly drawn) [Example 129, (9aS)-1-(4-tert-Butylphenyl)-N-(2,4-difluorophenyl)hexahydro-1H-pyrrolo[1,2-a][1,4]diazepine-2(3H)-carboxamide]
< 1000 | − (− indicates < 10-fold) | CC(C)(C)c1ccc(C2c3cccn3CCCC2C(=O)Nc2ccc(C(F)(F)F)cc2)cc1 (centres unmarked) [Example 93, 9-(4-tert-Butylphenyl)-N-(4-(trifluoromethyl)phenyl)-6,7,8,9-tetrahydro-5H-pyrrolo[1,2-a]azepine-8-carboxamide]
> 1000 | − (− indicates < 10-fold) | CC(C)(C)c1ccc(C2c3nccn3CCCN2C(=O)c2ccc(Cl)cc2Cl)cc1 (centres unmarked) [Example 48, (9-(4-tert-Butylphenyl)-6,7-dihydro-5H-imidazo[1,2-a][1,4]diazepin-8(9H)-yl)(2,4-dichlorophenyl)methanone]
< 1000 | + (+ indicates > 10-fold) | CC(C)(C)c1ccc(C2c3cncn3CCCN2C(=O)Nc2ccc(Cl)cc2Cl)cc1 (centres unmarked) [Example 31, 9-(4-tert-Butylphenyl)-N-(2,4-dichlorophenyl)-6,7-dihydro-5H-imidazo[1,5-a][1,4]diazepine-8(9H)-carboxamide]
> 1000 | − (− indicates < 10-fold) | CC(C)(C)c1ccc(C2=C(C(=O)Nc3ccc(OC(F)(F)F)cc3)CCn3cccc32)cc1 [Example 58, 8-(4-tert-Butylphenyl)-N-(4-(trifluoromethoxy)phenyl)-5,6-dihydroindolizine-7-carboxamide]
< 1000 | + (+ indicates > 10-fold) | CC(C)(C)c1ccc(C2=C(C(=O)Nc3ccc(F)c(F)c3)CCCn3cccc32)cc1 [Example 65, (E)-9-(4-tert-Butylphenyl)-N-(3,4-difluorophenyl)-6,7-dihydro-5H-pyrrolo[1,2-a]azepine-8-carboxamide]
> 1000 | − (− indicates < 10-fold) | CC(C)(C)c1ccc(C2c3cccn3CCCC2NC(=O)Nc2ccc(Cl)c(Cl)c2)cc1 (single isomer, unassigned) [Example 120, 1-(9-(4-tert-Butylphenyl)-6,7,8,9-tetrahydro-5H-pyrrolo[1,2-a]azepin-8-yl)-3-(3,4-dichlorophenyl)urea]
> 1000 | − (− indicates < 10-fold) | CC(C)(C)c1ccc(Cc2ccc3n2CCCN3c2nc3ccccc3o2)cc1 [Example 54, 2-(6-(4-tert-Butylbenzyl)-3,4-dihydropyrrolo[1,2-a]pyrimidin-1(2H)-yl)benzo[d]oxazole]
< 1000 | − (− indicates < 10-fold) | CC(C)(C)c1ccc(C2=C(C(=O)Nc3ccc(C(F)(F)F)cc3)CCCn3cccc32)cc1 [Example 64, (E)-9-(4-tert-Butylphenyl)-N-(4-(trifluoromethyl)phenyl)-6,7-dihydro-5H-pyrrolo[1,2-a]azepine-8-carboxamide]
> 1000 | + (+ indicates > 10-fold) | CC(C)(C)c1ccc(C2=C(NC(=O)Nc3ccc(Cl)c(Cl)c3)CCCn3cccc32)cc1 [Example 87, (E)-1-(9-(4-tert-Butylphenyl)-6,7-dihydro-5H-pyrrolo[1,2-a]azepin-8-yl)-3-(3,4-dichlorophenyl)urea]
< 1000 | − (− indicates < 10-fold) | CC(C)(C)C1CCC(C2c3cccn3CCCN2C(=O)c2ccc(F)cc2F)CC1 (centres unmarked) [Example 45, (1-(4-tert-Butylcyclohexyl)-4,5-dihydro-1H-pyrrolo[1,2-a][1,4]diazepin-2(3H)-yl)(2,4-difluorophenyl)methanone]
